According to ChEMBL document CHEMBL1275549, “A new tetracycline efflux gene, tet(40), is located in tandem with tet(O/32/O) in a human gut firmicute bacterium and in metagenomic library clones” (Antimicrob Agents Chemother, 2008):
Values after ≈ are worked out from the molar mass of the structure shown.

Columns and labels:
Escherichia coli [1] = test: Antibacterial activity against Escherichia coli EPI300 expressing tet(W) gene assessed as inhibition of bacterial growth at 80 ug/ml after 18 hrs in presence of 2.5 ug/ml efflux pump inhibitor CCCP; values are per cent of control
Escherichia coli [2] = test: Antibacterial activity against Escherichia coli EPI300 expressing tet(40) gene assessed as inhibition of bacterial growth at 40 ug/ml after 18 hrs in presence of 2.5 ug/ml efflux pump inhibitor CCCP; values are per cent of control
Escherichia coli [3] = test: Antibacterial activity against Escherichia coli EPI300 expressing tet(W) gene assessed as bacterial growth at 60 ug/ml after 18 hrs in presence of 2.5 ug/ml efflux pump inhibitor CCCP
Escherichia coli [4] = test: Antibacterial activity against Escherichia coli EPI300 expressing tet(40) gene assessed as bacterial growth at 60 ug/ml after 18 hrs in presence of 2.5 ug/ml efflux pump inhibitor CCCP
Escherichia coli [5] = test: Antibacterial activity against Escherichia coli EPI300 expressing tet(40) gene assessed as bacterial growth at 80 ug/ml after 18 hrs in presence of 2.5 ug/ml efflux pump inhibitor […]
Escherichia coli [6] = test: Antibacterial activity against Escherichia coli EPI300 harboring plasmid GEM-T expressing tet(40) gene after 16 hrs; assay type: functional, organism-based; details: EPI300, 16 h
Escherichia coli [7] = test: Antibacterial activity against Escherichia coli EPI300 expressing tet(W) gene assessed as inhibition of bacterial growth at 40 ug/ml after 18 hrs in presence of 2.5 ug/ml efflux pump inhibitor CCCP; values are per cent of control

## CN(C)[C@@H]1C(O)=C(C(N)=O)C(=O)[C@@]2(O)C(O)=C3C(=O)c4c(O)cccc4[C@@](C)(O)[C@H]3C[C@@H]12 [TETRACYCLINE]
Escherichia coli [1]
  growth, % of control: 75.4%
Escherichia coli [2]
  growth, % of control: 56.5%
Escherichia coli [3]
  growth, % of control: 99.2%
Escherichia coli [4]
  growth, % of control: 53.4%
Escherichia coli [5]
  growth, % of control: 16.5%
Escherichia coli [6]
  IC50: 60 µg/mL (≈ 135 µM)
Escherichia coli [7]
  growth, % of control: 96.4%
